Measurements from patent publication US20160303147A1 (priority 2007, published 2016).
Where two headings read alike, the source gives them in different places.

Assays:
[1] = system: lethal Orthopoxivirus infections; assay type: in vivo; conditions: mice and rabbits
[2] = Clinical safety study in healthy volunteers, single dose cohort 6; assay type: in vivo, human; conditions: cohort 6, 600 μg/kg single dose, still blinded
Experimental: (§1) An initial study was conducted to evaluate the safety and pharmacokinetics of
(§2) CMX001 in healthy volunteers. The study consisted of a single dose arm (SD) and a multiple dose arm (MD). In the single dose arm 7 cohorts of 6 subjects were treated (4 subjects received active drug and 2 placebo). Enrollment was staggered as 2 subjects (one active, one placebo) followed by 4 subjects (Groups A and B). The estimated single doses for the two highest doses treated for a […] subject were 40 mg (0.6 mg/kg cohort 6) and 70 mg (1 mg/kg cohort 7). In the multiple dose arm, cohort 6MD received 0.1 mg/kg on Day 0, 6 and 12; Cohort 7MD received 0.2 mg/kg on Day 0, 6 and 12. Levels of cidofovir, CMX001 and CMX064 (major metabolite) were measured in blood and urine of subjects during the course of the study. Gastrointestinal (GI) monitoring of the subjects included (a) monitoring for clinical signs of GI adverse events, (b) monitoring for clinical symptoms using a visual Analog Scale, (c) monitoring for appetite loss/anorexia, nausea, vomiting, diarrhea, constipation and intestinal gas/bloating, (d) laboratory tests for fecal occult blood; serum electrolytes, urine specific gravity, BUN/creatinine ratio; serum albumin, and lipids, and (e) diagnostic studies (the Wireless capsule endoscopy (PillCam®, Given Imaging)).
Plasma concentration curves of CMX001 following a single dose administration are shown in FIG. 1, and plasma concentration curves of cidofovir following a single dose of CMX001 are shown in FIG. 2.

[3] = Clinical pharmacokinetics in healthy volunteers, single dose of CMX001; assay type: in vivo; conditions: Human, analyte = label
Experimental: as §1, §2
Table 3 illustrates the PK comparison of CMX 001 with CMX 021 and CMX 064 for mouse, rabbit and human.

[4] = intravenous infusion, patients; cited from earlier work

Question: Which results are given for `CCCCCCCCCCCCCCCCOCCCOP(=O)(O)CO[C@H](CO)Cn1ccc(N)nc1=O` [CMX001]?
Answer: effective dose ([1]; daily for 5 days, low titer inoculums): 1 to 2 mg/kg; effective dose ([1]; late stage, single dose): 20 to 30 mg/kg; protection against lethal Orthopoxivirus infections [1]: essentially completely protective; adverse events [2]: No serious adverse events (SAEs), no significant adverse events (AEs) (i.e. ≧Grade 2), no AEs directly attributable to drug; changes to clinical laboratory values [2]: No drug associated clinically significant changes to clinical laboratory values, including those indicative of kidney dysfunction; gastrointestinal capsule endoscopy findings [2]: No post-dose clinically significant gastrointestinal capsule endoscopy findings attributable to drug

Question: What does the source list for `Nc1ccn(C[C@@H](CO)OCP(=O)(O)OCCCOCCCC(=O)O)c(=O)n1` [CMX064]?
Answer: AUCO→ ([3]; CMX001 dose 0.050 mg/kg): 38.95 ng·h/mL; Cmax ([3]; CMX001 dose 0.050 mg/kg): 4.63 ng/mL; AUCO→ ([3]; CMX001 dose 0.100 mg/kg): 34.02 ng·h/mL; Cmax ([3]; CMX001 dose 0.100 mg/kg): 2.85 ng/mL; AUCO→ ([3]; CMX001 dose 0.200 mg/kg): 39.73 ng·h/mL; Cmax ([3]; CMX001 dose 0.200 mg/kg): 4.55 ng/mL; AUCO→ ([3]; CMX001 dose 0.400 mg/kg): 202.99 ng·h/mL; Cmax ([3]; CMX001 dose 0.400 mg/kg): 23.03 ng/mL; AUCO→ ([3]; CMX001 dose 0.600 mg/kg): 187.0 ng·h/mL; Cmax ([3]; CMX001 dose 0.600 mg/kg): 24.86 ng/mL

Question: With `Nc1ccn(C[C@@H](CO)OCP(=O)(O)O)c(=O)n1` [Cidofovir] as the molecule, how does the nephrotoxicity [4] read?
Answer: dose-limited by its nephrotoxicity
